Activity data for one molecule are collected here from ChEMBL document CHEMBL1151639, “Antibacterial sesquiterpene aryl esters from Armillaria mellea” (J Nat Prod, 1985).

The source made the active and inactive calls. No cut-off for these calls is given here.

What all share (format): functional, organism-based
In one experiment the test system is Pseudomonas aeruginosa. As to the kind of experiment: Antibacterial activity against Pseudomonas aeruginosa.
For another experiment, the system named is Bacillus subtilis. The experiment in a line: Antibacterial activity against Bacillus subtilis 5262 ATCC 6633.
Another experiment has as its system Staphylococcus aureus. The experiment in a line: Antibacterial activity against Staphylococcus aureus 209P ATCC 53156.
Another experiment relates to Escherichia coli. The experiment in a line: Antibacterial activity against Escherichia coli.

On to `CO[C@]12C(C=O)=C[C@@H]3CC(C)(C)C[C@@H]3[C@@]1(C)C[C@H]2OC(=O)c1c(C)cc(O)cc1O`, for which the result in the experiment with Pseudomonas aeruginosa and in the experiment on Escherichia coli was inactive. Further, the outcome in the experiment on Bacillus subtilis and with Staphylococcus aureus was Active.
